Source: patent publication US20110110930A1, “Mitogen-Activated Protein Kinase Kinase Kinase 14 (MAP3K14) Polymorphisms As Indicators of Subject Outcome in Critically Ill Subjects” (priority 2007, published 2011)
“Also recorded” adds a separate entry of the source.

Tested on: ICU subjects with severe sepsis
Assay: Response to steroids in ICU severe sepsis subjects by MAP3K14 rs7222094 genotype (28-day survival, days alive and free of organ dysfunction)
Assay type: in vivo, human
Settings: for SURV (28-Day Survival): % (N survived); for Delta SURV (28-Day Survival): treat (steroid-treated) minus cont (steroid untreated controls), difference of % survival; for Delta COAG.DAF (Days alive and free of coagulation dysfunction) / Delta CVS.DAF (Days alive and free of cardiovascular dysfunction) / Delta DA (Days alive) / Delta INR.DAF (Days alive and free of international normalized ratio >1.5) / Delta LIVER.DAF (Days alive and free of any type of hepatic dysfunction) / Delta PRESS.DAF (Days alive and free of any vasopressors) / Delta RENAL.DAF (Days alive and free of any type of renal dysfunction) / Delta RENSUP.DAF (Days alive and free of renal support) / Delta RESP.DAF (Days alive and free of respiratory dysfunction) / Delta VENT.DAF (Days alive and free of mechanical ventilators): treat minus cont (steroid untreated controls), difference of medians
Experimental: All subjects admitted to the ICU of St. Paul's Hospital (SPH) were screened for study inclusion. SPH ICU is a mixed medical-surgical ICU in a tertiary care, university-affiliated teaching hospital. Subjects were included in the study if they met at least two out of four SIRS criteria: 1) fever (>38° C.) or hypothermia (<36° C.), 2) tachycardia (>90 beats/minute), 3) tachypnea (>20 breaths/minute), PaCO2<32 mm Hg, or need for mechanical ventilation, and 4) leukocytosis (total leukocyte count>12,000 mm^3) or leukopenia (<4,000 mm^3). Subjects were included in the analysis if they met the diagnostic criteria for septic shock (sepsis and cardiovascular dysfunction (as defined by Brussels scoring system) and one other organ dysfunction) on admission to the ICU. Subjects were excluded if blood could not be obtained for genotype analysis. Baseline characteristics (age, gender, admission APACHE II score (KNAUS W A. et al. Crit. Care Med. (1985) 13:818-829), together with medical vs. surgical diagnosis KNAUS W A. et al. Chest (1991) 100:1619-1636) were recorded on admission to the ICU. The full cohort meeting these criteria included 1072 Caucasian subjects and 153 Asian subjects.
The primary outcome variable evaluated in this study was 28-day mortality. Various organ dysfunctions were considered as secondary outcome variables. Baseline demographics recorded were age, gender, admission APACHE II score (KNAUS W A. et al. Crit. Care Med (1985) 13:818-829), and medical or surgical diagnosis on admission to the ICU (based on the APACHE III diagnostic codes) (KNAUS W A. et al. Chest (1991) 100:1619-1636) (TABLE 2B).
After meeting the inclusion criteria, data were recorded for each 24-hour period (8 am to 8 am) for 28-days after ICU admission or until hospital discharge to evaluate organ dysfunction, the intensity of SIRS (Systemic Inflammatory Response Syndrome) and sepsis. Raw clinical and laboratory variables were recorded using the worst or most abnormal variable for each 24-hour period with the exception of Glasgow Coma Score, for which the best possible score for each 24-hour period was recorded. Missing data on the date of admission was assigned a normal value and missing data after day one was substituted by carrying forward the value from the previous day. When data collection for each patient was complete, all patient identifiers were removed from all records and the patient file was assigned a unique random number linked with the blood samples. The completed raw data file was used to calculate descriptive and severity of illness scores using standard definitions as described below.
Organ dysfunction was first evaluated at baseline and then daily using the Brussels score (SIBBALD W J. and VINCENT J L. Chest (1995) 107(2):522-7) (see TABLE 2A in General Methods Section). If the Brussels score was moderate, severe, or extreme dysfunction then organ dysfunction was recorded as present on that day. To correct for deaths during the observation period, we calculated the days alive and free of organ dysfunction (RUSSELL J A. et al. Crit. Care Med (2000) 28(10):3405-11 and BERNARD G R. et al. Chest (1997) 112(1):164-72) (TABLE 2C). For example, the severity of cardiovascular dysfunction was assessed by measuring days alive and free of cardiovascular dysfunction over a 28-day observation period. Days alive and free of cardiovascular dysfunction was calculated as the number of days after inclusion that a patient was alive and free of cardiovascular dysfunction over 28-days. Thus, a lower score for days alive and free of cardiovascular dysfunction indicates more cardiovascular dysfunction. The reason that days alive and free of cardiovascular dysfunction is preferable to simply presence or absence of cardiovascular dysfunction is that severe sepsis has a high acute mortality so that early death (within 28-days) precludes calculation of the presence or absence of cardiovascular dysfunction in dead subjects. […]

[1] = steroid-treated, rs7222094 TT (N = 74), Table 4.3 25th percentile/median/75th percentile, Table 4.5 median

Substance: hydrocortisone [steroids]
- worse survival of steroid-treated than untreated subjects (rs7222094 CC subjects, p=0.02023, Pearson's Chi-square): 15%
- 28-day survival and organ dysfunction compared to controls (in words) (steroid-treated subjects with rs7222094 CC): lower 28-day survival and more organ dysfunction than controls; also recorded: decreases 28-day survival
- 28-day survival and organ function compared to controls (in words) (steroid-treated subjects with rs7222094 TT): increased survival and improved organ function; also recorded: improved compared with controls
- SURV (28-Day Survival) (steroid-treated, genotypes Combined (N = 355)): 57% (203)
- SURV (28-Day Survival) (steroid-treated, rs7222094 CC (N = 122)): 45% (55)
- RENAL.DAF (Days alive and free of any type of renal dysfunction) (steroid-treated, rs7222094 CC (N = 122), Table 4.3 25th percentile/median/75th percentile, Table 4.5 median): 0 days
- SURV (28-Day Survival) (steroid-treated, rs7222094 TC (N = 159)): 59% (94)
- DA (Days alive) [1]: 28 days
- INR.DAF (Days alive and free of international normalized ratio >1.5) [1]: 27 days
- LIVER.DAF (Days alive and free of any type of hepatic dysfunction) [1]: 28 days
- Delta SURV (28-Day Survival) (rs7222094 CC): −15.0
- Delta SURV (28-Day Survival) (rs7222094 TC): −7.0
- Delta SURV (28-Day Survival) (rs7222094 TT): 3.0
- Delta COAG.DAF (Days alive and free of coagulation dysfunction) (rs7222094 CC): -11.5 days
- Delta CVS.DAF (Days alive and free of cardiovascular dysfunction) (rs7222094 CC): -1.0 days
- Delta DA (Days alive) (rs7222094 CC): -5.0 days
- Delta INR.DAF (Days alive and free of international normalized ratio >1.5) (rs7222094 CC): -6.0 days
- Delta LIVER.DAF (Days alive and free of any type of hepatic dysfunction) (rs7222094 CC): -6.5 days
- Delta PRESS.DAF (Days alive and free of any vasopressors) (rs7222094 CC): -11.0 days
- Delta RENAL.DAF (Days alive and free of any type of renal dysfunction) (rs7222094 CC): -4.0 days
- Delta RENSUP.DAF (Days alive and free of renal support) (rs7222094 CC): -9.0 days
- Delta RESP.DAF (Days alive and free of respiratory dysfunction) (rs7222094 CC): -12.0 days
- Delta VENT.DAF (Days alive and free of mechanical ventilators) (rs7222094 CC): -11.0 days
- Delta COAG.DAF (Days alive and free of coagulation dysfunction) (rs7222094 TC): -3.0 days
- Delta CVS.DAF (Days alive and free of cardiovascular dysfunction) (rs7222094 TC): -0.5 days
- Delta DA (Days alive) (rs7222094 TC): 0.0 days
- Delta INR.DAF (Days alive and free of international normalized ratio >1.5) (rs7222094 TC): -1.0 days
- Delta LIVER.DAF (Days alive and free of any type of hepatic dysfunction) (rs7222094 TC): 0.0 days
- Delta PRESS.DAF (Days alive and free of any vasopressors) (rs7222094 TC): -7.0 days
- Delta RENAL.DAF (Days alive and free of any type of renal dysfunction) (rs7222094 TC): -9.5 days
- Delta RENSUP.DAF (Days alive and free of renal support) (rs7222094 TC): -9.0 days
- Delta RESP.DAF (Days alive and free of respiratory dysfunction) (rs7222094 TC): -7.0 days
- Delta VENT.DAF (Days alive and free of mechanical ventilators) (rs7222094 TC): -11.0 days
- Delta COAG.DAF (Days alive and free of coagulation dysfunction) (rs7222094 TT): -0.5 days
- Delta CVS.DAF (Days alive and free of cardiovascular dysfunction) (rs7222094 TT): 1.0 days
- Delta DA (Days alive) (rs7222094 TT): 0.0 days
- Delta INR.DAF (Days alive and free of international normalized ratio >1.5) (rs7222094 TT): 0.0 days
- Delta LIVER.DAF (Days alive and free of any type of hepatic dysfunction) (rs7222094 TT): 0.0 days
- Delta PRESS.DAF (Days alive and free of any vasopressors) (rs7222094 TT): -2.0 days
- Delta RENAL.DAF (Days alive and free of any type of renal dysfunction) (rs7222094 TT): -5.5 days
- Delta RENSUP.DAF (Days alive and free of renal support) (rs7222094 TT): 0.0 days
- Delta RESP.DAF (Days alive and free of respiratory dysfunction) (rs7222094 TT): -2.0 days
- Delta VENT.DAF (Days alive and free of mechanical ventilators) (rs7222094 TT): -2.0 days
